Measurements: patent US20240390369A1, “METHODS FOR DETERMINING RESPONSIVENESS TO TYK2 INHIBITORS” (Bristol-Myers Squibb Company, priority 2021, published 2024)
Values joined by “and” are separate entries in the source; they are usually repeats but may differ in a detail not shown here. Equal values may be shown once.

Tested on: patients with psoriatic arthritis
Test: Phase 2 trial in psoriatic arthritis: PASI75 response at week 16
Assay type: in vivo, human
Conditions: for Interaction Term for PASI75 response (ratio of odds ratios): week 16; for PASI75 response rate over time / Number of subjects, PASI75 Non-responder at week 16 / Number of subjects, PASI75 Responder at week 16 / Number of subjects, PASI75 Non-responder / Number of subjects, PASI75 Responder / Number of subjects: 6 mg QD; for PASI75 response rate over time: 12 mg QD, placebo, sixteen-week treatment period
Method: In a double-blind Phase 2 trial, 203 patients with psoriatic arthritis were randomized into three groups: deucravacitinib 6 mg once daily (N=70), deucravacitinib 12 mg once daily (N=67), or placebo (N=66). All subjects had active psoriatic arthritis according to the Classification Criteria for Psoriatic Arthritis (CASPAR); for active disease, these criteria required ≥3 tender joint count, ≥3 swollen joint count, and a C-reactive protein level above 3 mg/L. Other inclusion criteria included the following: presence of at least one plaque psoriasis lesion, and prior treatment failure with a non-biologic disease modifying anti-rheumatic drug, a non-steroidal anti-inflammatory drug, or a steroid. With respect to treatment history, approximately 70% of subjects had not received prior treatment with a biologic and were biologic naïve, while up to 30% of subjects had failed or had been intolerant to one TNF-inhibitor (TNF=Tumor necrosis factor, also known as TNFα). Randomization was stratified by prior TNF-inhibitor use (experienced/naïve) and body weight (<90 kg and ≥90 kg).
Clinical measures included the Psoriasis […] (PASI) score for skin psoriasis, American College of Rheumatology 20 (ACR20) response, Psoriatic Arthritis Disease Activity Score (PASDAS), Health Assessment Questionnaire-Disability Index (HAQ-DI), and Disease Activity Score 28 CRP (DAS28). To evaluate the predictive value of different protein measurements for the clinical response to deucravacitinib, baseline protein concentrations for responders and non-responders, as defined by ACR20 or PASI75 at week 16, were compared for each arm (placebo, 6 mg deucravacitinib once-daily, and 12 mg deucravacitinib once-daily).
In addition, a logistic regression model was fit, to determine whether baseline disease score (dichotomized by the median baseline score, into baseline score high and baseline score low groups) was associated with response status. The model generated an odds ratio for each dosed arm versus placebo, in baseline score high and baseline score low groups.
Boxplots for baseline protein level by response were generated with a horizontal line indicating the median protein level at baseline. For each treatment arm, a two-sample t-test was performed to test whether mean baseline serum protein level was different in responders versus non-responders. A Wilcoxon rank sum test (Mann-Whitney U test) was also performed to evaluate the difference in median serum protein level between responders and non-responders. Further, barplots of ACR20 and PASI75 response rate at week 16 for each treatment arm were generated for all subjects (protein level high and protein level low subjects, dichotomized according to median baseline level). Line plots of ACR20 and PASI75 response rate over time for each treatment arm were generated for protein level high and protein level low groups. Logistic regression models were also fit to evaluate associations between baseline protein levels and clinical outcome.
For certain analyses described herein, patients were dichotomized by median values (e.g., of the proteins listed above or other measures) into “high” and “low” groups, such that the high group had values above the median and the low group had values less than or equal to the median.
In addition, logistic regression models were fit for response measures ACR20 and PASI75, to generate the odds ratio of each of the deucravacitinib treatment arms versus placebo, in BD2-high and BD2-low groups. The following logistic regression models were used: • For ACR20 response status: ACR20 (Y/N)=treatment arm+BD2 group+treatment arm*BD2 group+TNF-inhibitor use+baseline weight (continuous). • For PASI75 response status: PASI75 (Y/N)=treatment arm+BD2 group+treatment arm*BD2 group+TNF-inhibitor use+baseline weight (continuous). […]

[1] = Above median baseline CRP level
[2] = Below median baseline CRP level

What does the source list for [2H]C([2H])([2H])NC(=O)c1nnc(NC(=O)C2CC2)cc1Nc1cccc(-c2ncn(C)n2)c1OC [deucravacitinib, 6-(cyclopropanecarboxamido)-4-((2-methoxy-3-(1-methyl-1H-1,2,4-triazol-3-yl)phenyl)amino)-N-(methyl-d3)pyridazine-3-carboxamide]?
Interaction Term for PASI75 response (ratio of odds ratios) (6 mg QD vs placebo: BD2 high versus BD2 low): 11.628; Interaction Term: treatment arm*CRP group, PASI75 (6 mg QD vs placebo: CRP high versus CRP low): 1.67; Interaction Term: treatment arm*CRP group, PASI75 (6 mg QD vs placebo: CRP-high versus CRP-low, adjusted for baseline PASI score): 1.67; Interaction Term: treatment arm*IL-17A group, PASI75 (6 mg QD vs placebo: IL-17A high versus IL-17A low, adjusted for baseline PASI score): 22.889; Interaction Term for PASI75 response (ratio of odds ratios) (6 mg QD vs placebo: IL-17A high versus IL-17A low): 22.851; Interaction Term for PASI75 response (ratio of odds ratios) (6 mg QD vs placebo: baseline PASI high versus PASI low): 5.51 and 5.514; PASI75 response rate over time (BD2-high and BD2-low groups (FIG. 9)): dose-dependent PASI75 response rate over time was observed in the BD2-high group but not in the BD2-low group; PASI75 response rate over time (CRP-high and CRP-low groups (FIG. 40)): higher response rates than the placebo arm; PASI75 response rate over time (IL-17A-high and IL-17A-low groups (FIG. 23)): dose-dependent PASI75 response over time was observed in IL-17A-high but not in IL-17A-low PsA patients; PASI75 response rate over time (IL-19-high and IL-19-low groups (FIG. 16)): dose-dependent PASI75 response over time was observed in IL-19-high but not in IL-19-low PsA patients; Number of subjects, PASI75 Non-responder at week 16 [1]: 17; Number of subjects, PASI75 Responder at week 16 [1]: 16; Number of subjects, PASI75 Non-responder at week 16 [2]: 17; Number of subjects, PASI75 Responder at week 16 [2]: 9; Number of subjects, PASI75 Non-responder (CRP-high-PASI-high): 4; Number of subjects, PASI75 Responder (CRP-high-PASI-high): 11; Number of subjects, PASI75 Non-responder (CRP-high-PASI-low): 13; Number of subjects, PASI75 Responder (CRP-high-PASI-low): 5; Number of subjects, PASI75 Non-responder (CRP-low-PASI-high): 7; Number of subjects, PASI75 Responder (CRP-low-PASI-high): 5; Number of subjects, PASI75 Non-responder (CRP-low-PASI-low): 10; Number of subjects, PASI75 Responder (CRP-low-PASI-low): 4; Number of subjects (PASI75 non-responder at week 16, above baseline PASI median 6.6): 11; Number of subjects (PASI75 non-responder at week 16, above median baseline BD2 level): 17; Number of subjects (PASI75 non-responder at week 16, above median baseline IL-17A level): 14; Number of subjects (PASI75 non-responder at week 16, above median baseline IL-19 level): 18; Number of subjects (PASI75 non-responder at week 16, below baseline PASI median 6.6): 23; Number of subjects (PASI75 non-responder at week 16, below median baseline BD2 level): 16; Number of subjects (PASI75 non-responder at week 16, below median baseline IL-17A level): 20; Number of subjects (PASI75 non-responder at week 16, below median baseline IL-19 level): 16; Number of subjects (PASI75 non-responder, BD2-high-PASI-high): 8; Number of subjects (PASI75 non-responder, BD2-high-PASI-low): 12; Number of subjects (PASI75 non-responder, BD2-low-PASI-high): 3; Number of subjects (PASI75 non-responder, BD2-low-PASI-low): 11; Number of subjects (PASI75 non-responder, IL-17A-high-PASI-high): 8; Number of subjects (PASI75 non-responder, IL-17A-high-PASI-low): 6; Number of subjects (PASI75 non-responder, IL-17A-low-PASI-high): 3; Number of subjects (PASI75 non-responder, IL-17A-low-PASI-low): 17; Number of subjects (PASI75 non-responder, IL-19-high-PASI-high): 9; Number of subjects (PASI75 non-responder, IL-19-high-PASI-low): 9; Number of subjects (PASI75 non-responder, IL-19-low-PASI-high): 2; Number of subjects (PASI75 non-responder, IL-19-low-PASI-low): 14; Number of subjects (PASI75 responder at week 16, above baseline PASI median 6.6): 16; Number of subjects (PASI75 responder at week 16, above median baseline BD2 level): 22; Number of subjects (PASI75 responder at week 16, above median baseline IL-17A level): 19; Number of subjects (PASI75 responder at week 16, above median baseline IL-19 level): 19; Number of subjects (PASI75 responder at week 16, below baseline PASI median 6.6): 9; Number of subjects (PASI75 responder at week 16, below median baseline BD2 level): 15; Number of subjects (PASI75 responder at week 16, below median baseline IL-17A level): 6; Number of subjects (PASI75 responder at week 16, below median baseline IL-19 level): 6; Number of subjects (PASI75 responder, BD2-high-PASI-high): 14
